Experimental data as given in ChEMBL document CHEMBL1799962, “Indolin-2-one p38α inhibitors I: design, profiling and crystallographic binding mode” (Bioorg Med Chem Lett, 2011).
Values after ≈ are worked out from the molar mass of the structure shown.

Assays:
[1] = Apparent permeability from apical to basolateral side in human Caco2 cells at 12.5 uM; assay type: ADME, cell-based; details: Caco-2
[2] = Apparent permeability from basolateral to apical side in human Caco2 cells at 12.5 uM; assay type: ADME, cell-based; details: Caco-2
[3] = Thermodynamic solubility of the compound in aqueous buffer at pH 7.4 at 37 degC by HPLC-UV analysis; assay type: physicochemical; details: read-out: Therm_solubility
[4] = Primary phase half life in rat at 1 mg/kg, iv; assay type: ADME, organism-based; set-up: dose 1 mg/kg, route intravenous; details: in vivo, read-out: alphat1/2
[5] = Terminal half life in rat at 1 mg/kg, iv; assay type: ADME, organism-based; set-up: dose 1 mg/kg, route intravenous; details: in vivo, read-out: beta t1/2 (converted)
[6] = Cmax in rat at 1 mg/kg, iv; assay type: ADME, organism-based; set-up: dose 1 mg/kg, route intravenous; details: in vivo
[7] = Clearance in rat at 1 mg/kg, iv; assay type: ADME, organism-based; set-up: dose 1 mg/kg, route intravenous; details: in vivo
[8] = AUC (0 to infinity) in rat at 1 mg/kg, iv; assay type: ADME, organism-based; set-up: time infinity, dose 1 mg/kg, route intravenous; details: plasma
[9] = Volume of distribution at steady state in rat at 1 mg/kg, iv; assay type: ADME, organism-based; set-up: dose 1 mg/kg, route intravenous; details: in vivo, read-out: Vdss
[10] = Cmax in rat at 10 mg/kg, po; assay type: ADME, organism-based; set-up: dose 10 mg/kg, route oral; details: in vivo
[11] = Oral bioavailability in rat at 10 mg/kg; assay type: ADME, organism-based; details: in vivo

With Cc1ccc(C(=O)NC2CC2)cc1-c1ccc2c(c1)NC(=O)C21CCCC1 the Papp A→B at 12.5 µM [1] was 18 ×10⁻⁶ cm/s, the Papp B→A at 12.5 µM [2] was 10 ×10⁻⁶ cm/s and the solubility thermodynamic [3] was 3 µg/mL (≈ 8.32 µM). The half-life [4] was < 1 h, the half-life [5] was 5.3 h and the Cmax [6] was 2000 ng/mL. It also gave a clearance [7] of 6.6 mL/min/kg, an AUC(0-inf) [8] of 2530 ng·h/mL and a Vd [9] of 0.8 L/kg. The Cmax [10] was 367 ng/mL and the bioavailability [11] was 10%.
